Our source for the melting point values is patent US7485661B2, “Heterobicyclic pyrazole derivatives as kinase inhibitors” (Pfizer Italia S.r.l., priority 2005, dated 2009).

The structures appear in SMILES notation.

For orientation: melting point means the temperature, or range, at which the solid turns liquid.

`CCOC(=O)c1cc2[nH]nc(N)c2s1` [Compound 6, Ethyl 3-amino-1H-thieno[3,2-c]pyrazole-5-carboxylate] had a melting point of 231 to 233 °C.
